Experimental findings from patent US9393221B2, “Methods and compounds for reducing intracellular lipid storage” (THE GENERAL HOSPITAL CORPORATION, priority 2011, dated 2016) are described below.

Where a name gives a salt, the structure may show the parent alone. Read-outs that look alike come from different tables or passages of the source.

The subject of this assay is ATGL-KO iPSCs. Kind of assay: High throughput iPSC chemical screening, Oil Red O (ORO) lipid accumulation. As to Z-score: test concentration or dose not given here. It counts as cell-based, mouse. The settings on record: for Rank in normalized ORO score from screen: glycolytic switch compounds.
The mark [1] stands for this setting: normalized ORO level vs DMSO-treated cells, compound present during 7 days differentiation, 96-well, negative = decrease in lipid accumulation.

On to `CO[C@@]1(NC(=O)C2SC(=C(C(N)=O)C(=O)O)S2)C(=O)N2C(C(=O)O)=C(CSc3nnnn3C)CS[C@@H]21` (stereo partly shown) [Cefotetan], for which the Z-score under setting [1] amounted to 2.584.
Under setting [1], `CN(C)CCn1nnnc1SCC1=C(C(=O)O)N2C(=O)[C@@H](NC(=O)Cc3csc(N)n3)[C@H]2SC1` [Cefotiam hydrochloride] registered a Z-score of −0.8453.
Molecule `CO[C@@]1(NC(=O)Cc2cccs2)C(=O)N2C(C(=O)O)=C(COC(N)=O)CS[C@@H]21` [Cefoxitin sodium salt] displayed a Z-score under setting [1] of −1.629.
`NC(=O)c1cc[n+](CC2=C(C(=O)O)N3C(=O)[C@@H](NC(=O)[C@@H](c4ccccc4)S(=O)(=O)[O-])[C@H]3SC2)cc1` [Cefsulodin sodium salt] returned a Z-score under setting [1] of −1.1155.
On the same count and under the same terms, the same measure for `CC(C)(O/N=C(\C(=O)N[C@@H]1C(=O)N2C(C(=O)[O-])=C(C[n+]3ccccc3)CS[C@H]12)c1csc(N)n1)C(=O)O` [Ceftazidime pentahydrate]: 0.00611; for `CO/N=C(\C(=O)N[C@@H]1C(=O)N2C(C(=O)O)=C(COC(N)=O)CS[C@H]12)c1ccco1` [Cefuroxime sodium salt]: 0.8177.
The same measure, in the same setting: the result for `CC[C@H]1CN2CCc3cc(OC)c(OC)cc3[C@@H]2C[C@@H]1C[C@H]1NCCc2cc(O)c(OC)cc21.Cl.Cl.O.O.O.O.O.O.O` [Cephaeline dihydrochloride heptahydrate] reads 26.5614.
The same measure, in the same setting: the same measure for `CC1=C(C(=O)O)N2C(=O)[C@@H](NC(=O)[C@H](N)c3ccccc3)[C@H]2SC1` [Cephalexin monohydrate]: −1.1486; for `CC(=O)OCC1=C(C(=O)O)N2C(=O)[C@@H](N)[C@H]2SC1` [Cephalosporanic acid, 7-amino]: 0.3224; for `CC(=O)OCC1=C(C(=O)O)N2C(=O)[C@@H](NC(=O)Cc3cccs3)[C@H]2SC1` [Cephalothin sodium salt]: 0.8566.
`O=C(O)COCCN1CCN(C(c2ccccc2)c2ccc(Cl)cc2)CC1` (stereo not shown) [Cetirizine dihydrochloride]: under setting [1], the Z-score is given as −0.3764.
On the same count and under the same terms, the result for `CN1Cc2c(ccc3c2OCO3)C2C(O)Cc3cc4c(cc3C21)OCO4` (stereo not drawn) [Chelidonine (+)] reads 16.9912.
On the same count and under the same terms, the result for `C[C@H](CCC(=O)O)[C@H]1CC[C@H]2[C@@H]3[C@H](O)C[C@@H]4C[C@H](O)CC[C@]4(C)[C@H]3CC[C@]12C` [Chenodiol] reads −1.6767.
Same read-out and setting: the same measure for `COc1cc(-c2ccc(N=Nc3ccc4c(S(=O)(=O)[O-])cc(S(=O)(=O)[O-])c(N)c4c3O)c(OC)c2)ccc1N=Nc1ccc2c(S(=O)(=O)[O-])cc(S(=O)(=O)[O-])c(N)c2c1O.[Na+].[Na+].[Na+].[Na+]` [Chicago sky blue 6B]: 0.6958; for `O=C(O)CCCc1ccc(N(CCCl)CCCl)cc1` [Chlorambucil]: −0.8818; for `O=C(N[C@H](CO)[C@H](O)c1ccc([N+](=O)[O-])cc1)C(Cl)Cl` [Chloramphenicol]: 1.318.
Under setting [1], `[H]/N=C(\N/C(=N/[H])NCCCCCCNC(=N)NC(=N)Nc1ccc(Cl)cc1)Nc1ccc(Cl)cc1` [Chlorhexidine] showed a Z-score of 24.4911.
Same read-out and setting: the same measure for `CN1C(=O)CCS(=O)(=O)C1c1ccc(Cl)cc1` (stereo not shown) [Chlormezanone]: −0.6525.
`O=C(/C=C/c1ccc(O)c(O)c1)O[C@@H]1C[C@](O)(C(=O)O)C[C@@H](O)[C@H]1O` [Chlorogenic acid] yielded a Z-score under setting [1] of 0.1486.
Still for that read-out and setting: the result for `CN(C)CCN(Cc1ccc(Cl)cc1)c1ccccn1` [Chloropyramine hydrochloride] reads 0.124.
`CCN(CC)CCCC(C)Nc1ccnc2cc(Cl)ccc12` (stereo not shown) [Chloroquine diphosphate] showed a Z-score of 0.8301.
For `NS(=O)(=O)c1cc2c(cc1Cl)N=CNS2(=O)=O` [Chlorothiazide], under setting [1], the Z-score is −0.1987.
As to `COc1ccc(C(Cl)=C(c2ccc(OC)cc2)c2ccc(OC)cc2)cc1` [Chlorotrianisene], the Z-score under setting [1] was −0.6534.
With `CN(C)CCC(c1ccc(Cl)cc1)c1ccccn1` (stereo not shown) [Chlorpheniramine maleate], under setting [1], the Z-score is −0.5399.
The same measure, in the same setting: the result for `NC(=O)OCC(O)COc1ccc(Cl)cc1` (stereo not shown) [Chlorphensin carbamate] reads 0.4583.
Same read-out and setting: the result for `CN(C)CCCN1c2ccccc2Sc2ccc(Cl)cc21` [Chlorpromazine hydrochloride] reads −0.5417; that for `CCCNC(=O)NS(=O)(=O)c1ccc(Cl)cc1` [Chlorpropamide], 0.199.
Consider `CN(C)CC/C=C1/c2ccccc2Sc2ccc(Cl)cc21` [Chlorprothixene hydrochloride], for which the “Rank in normalized ORO score from screen” value came out at 223. The Z-score under setting [1] was −0.9824.
`CN(C)[C@@H]1C(O)=C(C(N)=O)C(=O)[C@@]2(O)C(O)=C3C(=O)c4c(O)ccc(Cl)c4[C@@](C)(O)[C@H]3C[C@@H]12` [Chlortetracycline hydrochloride] registered a Z-score under setting [1] of −0.5479.
The same measure, in the same setting: the same measure for `NS(=O)(=O)c1cc(C2(O)NC(=O)c3ccccc32)ccc1Cl` (stereo not shown) [Chlorthalidone]: −0.3195.
Same read-out and setting: the same measure for `C=C1CC[C@H](O)C/C1=C/C=C1\CCC[C@]2(C)[C@@H]([C@H](C)CCCC(C)C)CC[C@@H]12` [Cholecalciferol]: 0.4701.
`O=C1C=CC(=O)c2c1ccc1c2ccc2ccccc21` [Chrysene-1,4-quinone]: the “Rank in normalized ORO score from screen” value is 133. This molecule had a Z-score under setting [1] of −1.1808.
In turn, `O=c1cc(-c2ccccc2)oc2cc(O)cc(O)c12` [Chrysin] returned a Z-score under setting [1] of −0.7142.
The same measure, in the same setting: the result for `Cc1cc(C2CCCCC2)n(O)c(=O)c1.NCCO` [Ciclopirox ethanolamine] reads 40.334; that for `CN/C(=N/CCSCc1nc[nH]c1C)NC#N` [Cimetidine], −0.2141.
The same measure, in the same setting: the result for `C=C[C@H]1C[N@@]2CC[C@H]1C[C@@H]2[C@@H](O)c1ccnc2ccccc12` [Cinchonine] reads −1.1697.
With `C(=C\c1ccccc1)/CN1CCN(C(c2ccccc2)c2ccccc2)CC1` [Cinnarizine], the “Rank in normalized ORO score from screen” value is reported as 44. The same molecule displayed a Z-score under setting [1] of −1.6064.
The molecule `CCn1nc(C(=O)O)c(=O)c2cc3c(cc21)OCO3` [Cinoxacin] showed a Z-score under setting [1] of 0.8009.
On the same count and under the same terms, the result for `CC(C)(Oc1ccc(C2CC2(Cl)Cl)cc1)C(=O)O` (stereo not shown) [Ciprofibrate] reads −0.5993; that for `O=C(O)c1cn(C2CC2)c2cc(N3CCNCC3)c(F)cc2c1=O` [Ciprofloxacin hydrochloride], −1.3212.
Still for that read-out and setting: the result for `COc1cc(N)c(Cl)cc1C(=O)NC1CCN(CCCOc2ccc(F)cc2)CC1OC` (stereo not shown) [Cisapride] reads 0.02062; that for `CN(C)CCCC1(c2ccc(F)cc2)OCc2cc(C#N)ccc21` (stereo not shown) [Citalopram Hydrobromide], 0.03052; that for `COc1cc(N)c(Cl)cc1C(=O)NC1CCN(Cc2ccccc2)CC1` [Clebopride maleate], −0.108.
With `CN1CCC[C@@H]1CCO[C@](C)(c1ccccc1)c1ccc(Cl)cc1` [Clemastine fumarate], the “Rank in normalized ORO score from screen” value was 197. The Z-score under setting [1] was −1.0269.
`Clc1ccc(Cn2c(CN3CCCC3)nc3ccccc32)cc1` [Clemizole hydrochloride]: the Z-score under setting [1] was −0.5701.
For `CC(C)(C)NCC(O)c1cc(Cl)c(N)c(Cl)c1` (stereo not shown) [Clenbuterol hydrochloride], the Z-score under setting [1] is 0.2391.
The same measure, in the same setting: the result for `C[N+]12CCC(CC1)C(OC(=O)C(O)(c1ccccc1)c1ccccc1)C2` (stereo not shown) [Clidinium bromide, reference compound] reads −1.8548; that for `Oc1c(I)cc(Cl)c2cccnc12` [Clioquinol], −1.5195.
Under setting [1], `CCC(=O)O[C@]1(C(=O)CCl)[C@@H](C)C[C@H]2[C@@H]3CCC4=CC(=O)C=C[C@]4(C)[C@@]3(F)[C@@H](O)C[C@@]21C` [Clobetasol propionate] came in with a Z-score of 2.1955.
Turning to `C[C@@H]1C[C@H]2[C@@H]3C[C@H](F)C4=CC(=O)C=C[C@]4(C)[C@@]3(Cl)[C@@H](O)C[C@]2(C)[C@H]1C(=O)COC(=O)C(C)(C)C` [Clocortolone pivalate], the Z-score under setting [1] worked out at 1.217.
Consider `CC(C)/N=c1\cc2n(-c3ccc(Cl)cc3)c3ccccc3nc-2cc1Nc1ccc(Cl)cc1` [Clofazimine], for which the Z-score under setting [1] is −0.5584.
Still for that read-out and setting: the same measure for `CC(C)(Oc1ccc(Cl)cc1)C(=O)O` [Clofibric acid]: 2.297.
As to `CCN(CC)CCOc1ccc(C(=C(Cl)c2ccccc2)c2ccccc2)cc1.O=C(O)CC(O)(CC(=O)O)C(=O)O` [Clomiphene citrate (Z,E), reference compound], the “Rank in normalized ORO score from screen” value was determined as 928. Besides, the Z-score under setting [1] is on record as 1.107.
Under setting [1], `Clc1cccc(Cl)c1N=C1NCCN1` [Clonidine hydrochloride] showed a Z-score of 0.04408.
As to `C[C@@H]1CCC[C@H](C)N1NC(=O)c1ccc(Cl)c(S(N)(=O)=O)c1` [Clopamide], the Z-score under setting [1] is −0.9945.
On to `Clc1ccc(C(OCCN2CCCCC2)c2ccccc2)cc1` (stereo not shown) [Cloperastine hydrochloride], for which the “Rank in normalized ORO score from screen” value came out at 863. Besides, under setting [1], the Z-score was determined as 0.7661.
With `C#CCN(C)CCCOc1ccc(Cl)cc1Cl` [Clorgyline hydrochloride], the Z-score under setting [1] is recorded as −0.8658.
The molecule `Nc1cc(C(Cl)=C(Cl)Cl)c(S(N)(=O)=O)cc1S(N)(=O)=O` [Clorsulon] registered a Z-score under setting [1] of −0.1576.
As for `Clc1ccccc1C(c1ccccc1)(c1ccccc1)n1ccnc1` [Clotrimazole], the “Rank in normalized ORO score from screen” value amounted to 37. Under setting [1], this molecule showed a Z-score of −1.6708.
The molecule `Cc1onc(-c2ccccc2Cl)c1C(=O)N[C@@H]1C(=O)N2[C@@H]1SC(C)(C)[C@@H]2C(=O)O` [Cloxacillin sodium salt] displayed a Z-score under setting [1] of −1.0101.
On the same count and under the same terms, the same measure for `CN1CCN(C2=Nc3cc(Cl)ccc3Nc3ccccc32)CC1` [Clozapine]: 0.4154.
Molecule `COc1cc2c(c(OC)c1OC)-c1ccc(OC)c(=O)cc1[C@@H](NC(C)=O)CC2` [Colchicine] gave a Z-score of 35.6417.
With `CCN1C[C@]2(COC)CC[C@H](O)[C@@]34C5C[C@@H]6[C@@H](OC)C[C@](O)(C(CC23)C14)C5[C@H]6OC(C)=O` (stereo partly shown) [Condelphine], under setting [1], the Z-score is on record as 0.3143.
